Reference: US12479895B2, “C-terminal CDNF and MANF fragments, pharmaceutical compositions comprising same and uses thereof” (MyNeuroCure Oy, priority 2018, dated 2025)

How the values were obtained:
dopamine neurons = experiment: Survival of TH-positive dopamine neurons in dissociated midbrain floor cultures; type: cell-based, mouse; settings: for survived neurons as % compared to neurons grown in the presence of GDNF / protection of dopaminergic neurons in culture (result in words): 5 days; for protection of dopaminergic neurons in culture (result in words): added to the culture medium, TH-positive neurons counted; for Fold change of survived neurons compared to neurons grown without growth factors: data of Table 3 divided by values of no factor
Summary of the method: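 Dissociated E13.5 NMRI mouse midbrain floor neurons grown five days in DMEM/F12 with N2, with polypeptides at a range of concentrations, GDNF (100 ng/ml), or nothing. TH-immunopositive neurons were counted by imaging. Values are a percentage of GDNF-maintained TH-positive neurons, as mean ± SEM from at least three independent cultures.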

ER stressed SCG neurons = experiment: Survival of tunicamycin-treated (ER stressed) SCG sympathetic neurons after microinjection; type: cell-based, mice; settings: for survived neurons as % compared to neurons grown in the presence of NGF: microinjected into cytoplasm, CDNF (400); for survived neurons as % compared to neurons grown in the presence of NGF / rescue of ER stressed SCG neurons (result in words): tunicamycin 2 μM; for rescue of ER stressed SCG neurons (result in words): protein or peptide microinjected into the cytoplasm, living fluorescent neurons counted after 3 days; for Fold change of survived neurons compared to neurons injected with PBS: data of Table 1 divided by values of PBS
Summary of the method: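 Newborn mouse SCG neurons grown 5-6 days with 30 ng/ml NGF, then microinjected with CDNF (FL or C-terminal) plasmids (10 ng/ul, EGFP reporter) or proteins (200 ng/ul, Dextran Texas Red). Tunicamycin (2 μM) added next day. Fluorescent survivors counted blindly after 3 days as % of initial; compared with vector or PBS (ANOVA/Dunnett).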

[1] = Table 3B (FIG. 17), AVG, 1 ng/ml
[2] = Table 3B (FIG. 17), AVG, 10 ng/ml
[3] = Table 3B (FIG. 17), AVG, 100 ng/ml
[4] = Table 3B (FIG. 17), AVG, 1000 ng/ml
[5] = Table 1B (FIG. 16), exp1, counted after 3 days
[6] = Table 1B (FIG. 16), exp2, counted after 3 days
[7] = Table 1B (FIG. 16), exp3, counted after 3 days

TLDLASVDLRKMRVAELKQILHSWGEECRACAEKTDYVNLIQEPAPKYA (Mutated C-CDNF peptide) [pep13]
survived neurons as % compared to neurons grown in the presence of GDNF (dopamine neurons; [1]): 71.07 % GDNF | survived neurons as % compared to neurons grown in the presence of GDNF (dopamine neurons; [2]): 86.81 % GDNF | survived neurons as % compared to neurons grown in the presence of GDNF (dopamine neurons; [3]): 88.07 % GDNF | survived neurons as % compared to neurons grown in the presence of GDNF (dopamine neurons; [4]): 85.36 % GDNF | protection of dopaminergic neurons in culture (result in words) (dopamine neurons): best protective effect | survived neurons as % compared to neurons grown in the presence of NGF (ER stressed SCG neurons; [5]): 77.41 % NGF | survived neurons as % compared to neurons grown in the presence of NGF (ER stressed SCG neurons; [6]): 72.46 % NGF | survived neurons as % compared to neurons grown in the presence of NGF (ER stressed SCG neurons; [7]): 80.39 % NGF | rescue of ER stressed SCG neurons (result in words) (ER stressed SCG neurons): rescue

TLDLASVDLRKMRVAELKQILHSWGEECRARACAEKTDYVNLIQELAPKYA (Mutated C-CDNF peptide) [pep11]
survived neurons as % compared to neurons grown in the presence of GDNF (dopamine neurons; [1]): 59.60 % GDNF | survived neurons as % compared to neurons grown in the presence of GDNF (dopamine neurons; [2]): 60.76 % GDNF | survived neurons as % compared to neurons grown in the presence of GDNF (dopamine neurons; [3]): 69.28 % GDNF | survived neurons as % compared to neurons grown in the presence of GDNF (dopamine neurons; [4]): 70.22 % GDNF | survived neurons as % compared to neurons grown in the presence of NGF (ER stressed SCG neurons; [5]): 46.25 % NGF | survived neurons as % compared to neurons grown in the presence of NGF (ER stressed SCG neurons; [6]): 48.61 % NGF | survived neurons as % compared to neurons grown in the presence of NGF (ER stressed SCG neurons; [7]): 44.64 % NGF

TLDLASVDLRKMRVAELKQILHSWGEECRASAEKTDYVNLIQELAPKYA (C-CDNF peptide with single amino acid substitution) [pep10]
survived neurons as % compared to neurons grown in the presence of GDNF (dopamine neurons; [1]): 54.25 % GDNF | survived neurons as % compared to neurons grown in the presence of GDNF (dopamine neurons; [2]): 63.09 % GDNF | survived neurons as % compared to neurons grown in the presence of GDNF (dopamine neurons; [3]): 68.97 % GDNF | survived neurons as % compared to neurons grown in the presence of GDNF (dopamine neurons; [4]): 69.16 % GDNF | survived neurons as % compared to neurons grown in the presence of NGF (ER stressed SCG neurons; [5]): 42.46 % NGF | survived neurons as % compared to neurons grown in the presence of NGF (ER stressed SCG neurons; [6]): 45.16 % NGF | survived neurons as % compared to neurons grown in the presence of NGF (ER stressed SCG neurons; [7]): 40.35 % NGF

TLDLASVDLRKMRVAELKQILHSWGEESRACAEKTDYVNLIQELAPKYA (C-CDNF peptide with single amino acid substitution) [pep9]
survived neurons as % compared to neurons grown in the presence of GDNF (dopamine neurons; [1]): 62.74 % GDNF | survived neurons as % compared to neurons grown in the presence of GDNF (dopamine neurons; [2]): 69.29 % GDNF | survived neurons as % compared to neurons grown in the presence of GDNF (dopamine neurons; [3]): 71.62 % GDNF | survived neurons as % compared to neurons grown in the presence of GDNF (dopamine neurons; [4]): 67.12 % GDNF | survived neurons as % compared to neurons grown in the presence of NGF (ER stressed SCG neurons; [5]): 41.23 % NGF | survived neurons as % compared to neurons grown in the presence of NGF (ER stressed SCG neurons; [6]): 44.00 % NGF | survived neurons as % compared to neurons grown in the presence of NGF (ER stressed SCG neurons; [7]): 44.44 % NGF

TLDLASVDLRKMRVAEPKQILHSWGEECRACAEKTDYVNLIQELAPKYA (Mutated C-CDNF peptide) [pep12]
survived neurons as % compared to neurons grown in the presence of GDNF (dopamine neurons; [1]): 68.57 % GDNF | survived neurons as % compared to neurons grown in the presence of GDNF (dopamine neurons; [2]): 83.1 % GDNF | survived neurons as % compared to neurons grown in the presence of GDNF (dopamine neurons; [3]): 87.93 % GDNF | survived neurons as % compared to neurons grown in the presence of GDNF (dopamine neurons; [4]): 84.16 % GDNF | protection of dopaminergic neurons in culture (result in words) (dopamine neurons): best protective effect | survived neurons as % compared to neurons grown in the presence of NGF (ER stressed SCG neurons; [5]): 86.74 % NGF | survived neurons as % compared to neurons grown in the presence of NGF (ER stressed SCG neurons; [6]): 86.15 % NGF | survived neurons as % compared to neurons grown in the presence of NGF (ER stressed SCG neurons; [7]): 70.17 % NGF | rescue of ER stressed SCG neurons (result in words) (ER stressed SCG neurons): rescue

TLDLASVDLRKMRVAEPKQILHSWGEECRACAEKTDYVNLIQEPAPKYA (Mutated C-CDNF peptide) [pep14]
survived neurons as % compared to neurons grown in the presence of GDNF (dopamine neurons; [1]): 71.49 % GDNF | survived neurons as % compared to neurons grown in the presence of GDNF (dopamine neurons; [2]): 84.24 % GDNF | survived neurons as % compared to neurons grown in the presence of GDNF (dopamine neurons; [3]): 85.71 % GDNF | survived neurons as % compared to neurons grown in the presence of GDNF (dopamine neurons; [4]): 82.81 % GDNF | protection of dopaminergic neurons in culture (result in words) (dopamine neurons): best protective effect | survived neurons as % compared to neurons grown in the presence of NGF (ER stressed SCG neurons; [5]): 55.76 % NGF | survived neurons as % compared to neurons grown in the presence of NGF (ER stressed SCG neurons; [6]): 34.32 % NGF | survived neurons as % compared to neurons grown in the presence of NGF (ER stressed SCG neurons; [7]): 48.43 % NGF

VDLRKMRVAELKQILHSWGEECRACAEKTDYVNLIQELAPKYA (listed as Homo sapiens) [pep6]
survived neurons as % compared to neurons grown in the presence of GDNF (dopamine neurons; Table 3A (FIG. 15), AVG, 1 ng/ml): 65.97 % GDNF | survived neurons as % compared to neurons grown in the presence of GDNF (dopamine neurons; Table 3A (FIG. 15), AVG, 10 ng/ml): 75.95 % GDNF | survived neurons as % compared to neurons grown in the presence of GDNF (dopamine neurons; Table 3A (FIG. 15), AVG, 100 ng/ml): 73.52 % GDNF | survived neurons as % compared to neurons grown in the presence of GDNF (dopamine neurons; Table 3A (FIG. 15), AVG, 1000 ng/ml): 70.75 % GDNF | survived neurons as % compared to neurons grown in the presence of GDNF (dopamine neurons; Table 3A (FIG. 15), exp1, 1 ng/ml): 62.89 % GDNF | survived neurons as % compared to neurons grown in the presence of GDNF (dopamine neurons; Table 3A (FIG. 15), exp1, 10 ng/ml): 66.29 % GDNF | survived neurons as % compared to neurons grown in the presence of GDNF (dopamine neurons; Table 3A (FIG. 15), exp1, 100 ng/ml): 71.71 % GDNF | survived neurons as % compared to neurons grown in the presence of GDNF (dopamine neurons; Table 3A (FIG. 15), exp1, 1000 ng/ml): 63.01 % GDNF | survived neurons as % compared to neurons grown in the presence of GDNF (dopamine neurons; Table 3A (FIG. 15), exp2, 1 ng/ml): 77.34 % GDNF | survived neurons as % compared to neurons grown in the presence of GDNF (dopamine neurons; Table 3A (FIG. 15), exp2, 10 ng/ml): 83.75 % GDNF | survived neurons as % compared to neurons grown in the presence of GDNF (dopamine neurons; Table 3A (FIG. 15), exp2, 100 ng/ml): 71.86 % GDNF | survived neurons as % compared to neurons grown in the presence of GDNF (dopamine neurons; Table 3A (FIG. 15), exp2, 1000 ng/ml): 67.06 % GDNF | survived neurons as % compared to neurons grown in the presence of GDNF (dopamine neurons; Table 3A (FIG. 15), exp3, 1 ng/ml): 57.68 % GDNF | survived neurons as % compared to neurons grown in the presence of GDNF (dopamine neurons; Table 3A (FIG. 15), exp3, 10 ng/ml): 77.81 % GDNF | survived neurons as % compared to neurons grown in the presence of GDNF (dopamine neurons; Table 3A (FIG. 15), exp3, 100 ng/ml): 76.97 % GDNF | survived neurons as % compared to neurons grown in the presence of GDNF (dopamine neurons; Table 3A (FIG. 15), exp3, 1000 ng/ml): 82.17 % GDNF | Fold change of survived neurons compared to neurons grown without growth factors (dopamine neurons; Table 4, AVG, 1 ng/ml): 1.07 fold | Fold change of survived neurons compared to neurons grown without growth factors (dopamine neurons; Table 4, AVG, 10 ng/ml): 1.23 fold | Fold change of survived neurons compared to neurons grown without growth factors (dopamine neurons; Table 4, AVG, 100 ng/ml): 1.19 fold | Fold change of survived neurons compared to neurons grown without growth factors (dopamine neurons; Table 4, AVG, 1000 ng/ml): 1.15 fold | Fold change of survived neurons compared to neurons grown without growth factors (dopamine neurons; Table 4, exp1, 1 ng/ml): 1.10 fold | Fold change of survived neurons compared to neurons grown without growth factors (dopamine neurons; Table 4, exp1, 10 ng/ml): 1.16 fold | Fold change of survived neurons compared to neurons grown without growth factors (dopamine neurons; Table 4, exp1, 100 ng/ml): 1.25 fold | Fold change of survived neurons compared to neurons grown without growth factors (dopamine neurons; Table 4, exp1, 1000 ng/ml): 1.10 fold | Fold change of survived neurons compared to neurons grown without growth factors (dopamine neurons; Table 4, exp2, 1 ng/ml): 1.23 fold | Fold change of survived neurons compared to neurons grown without growth factors (dopamine neurons; Table 4, exp2, 10 ng/ml): 1.33 fold | Fold change of survived neurons compared to neurons grown without growth factors (dopamine neurons; Table 4, exp2, 100 ng/ml): 1.14 fold | Fold change of survived neurons compared to neurons grown without growth factors (dopamine neurons; Table 4, exp2, 1000 ng/ml): 1.06 fold | Fold change of survived neurons compared to neurons grown without growth factors (dopamine neurons; Table 4, exp3, 1 ng/ml): 0.89 fold | Fold change of survived neurons compared to neurons grown without growth factors (dopamine neurons; Table 4, exp3, 10 ng/ml): 1.20 fold | Fold change of survived neurons compared to neurons grown without growth factors (dopamine neurons; Table 4, exp3, 100 ng/ml): 1.19 fold | Fold change of survived neurons compared to neurons grown without growth factors (dopamine neurons; Table 4, exp3, 1000 ng/ml): 1.27 fold | survived neurons as % compared to neurons grown in the presence of NGF (ER stressed SCG neurons; Table 1A (FIG. 14), AVG of exp1-2): 78.47 % NGF | survived neurons as % compared to neurons grown in the presence of NGF (ER stressed SCG neurons; Table 1A (FIG. 14), exp1, counted after 3 days): 81.94 % NGF | survived neurons as % compared to neurons grown in the presence of NGF (ER stressed SCG neurons; Table 1A (FIG. 14), exp2, counted after 3 days): 75.00 % NGF | Fold change of survived neurons compared to neurons injected with PBS (ER stressed SCG neurons; Table 2, AVG): 2.14 Fold to PBS | Fold change of survived neurons compared to neurons injected with PBS (ER stressed SCG neurons; Table 2, exp1): 2.39 Fold to PBS | Fold change of survived neurons compared to neurons injected with PBS (ER stressed SCG neurons; Table 2, exp2): 1.89 Fold to PBS
